Test [1] relates to memory loss induced by an acute administration of scopolamine (ESC). Put plainly: Y-maze, short-term spatial memory, acute scopolamine (ESC) model. The format is in vivo, mice. The protocol:
Young male OF-1 mice (20-25 g), supplied by the National Center for the Laboratory Animals Production (CENPALAB, Cuba), were used. Before the experiment, the animals were adapted for seven days to laboratory conditions (controlled temperature 25±2° C., relative humidity 60±10% and light/dark cycles of 12 h). During this period, and during the experiment, the animals received ad libitum water and a standard diet for rodents supplied by CENPALAB. All procedures were carried out in accordance with the European Commission guidelines for the use and care of laboratory animals and approved by the Committee for the Care of Research Animals. The minimum number of animals and duration of observations required to obtain consistent data was used.
At the end of the adaptation period, the animals were randomly distributed according to their body weights in 5 experimental groups of 12 animals per group. Scopolamine hydrobromohydrate (ESC, Sigma Aldrich) was used to induce cognitive deficit, which was dissolved in physiological saline and administered intraperitoneally (ip) at a dose of 1.5 mg/kg, 30 minutes before the test (Miranda H F et al. in. J. Biomed. Sci., 2014 21 (1): 62-62). The doses of compound 3 used were 0.1, 1, 10 and 20 mg/kg of body weight. The compound was formulated using carboxymethyl cellulose (CMC). The administration scheme was designed as follows:
Group 1 (negative control) with normal cognitive function. Two administrations with an interval of 30 minutes with vehicle (5% CMC) by oral route and saline solution by i.p. route, respectively.
Group 2 (positive control) with cognitive dysfunction. Two administrations with an interval of 30 minutes, the first with vehicle (5% CMC), the second with ESC 1 mg/kg.
Group 3, 4, 5 and 6 treated with 3 (0.1, 1, 10 and 20 mg/kg). Two administrations with an interval of 30 minutes, the first with 3 at the dose corresponding to each group, the second with ESC 1 mg/kg. The behavioral evaluation was carried out 30 minutes after this second administration.
The study of short-term spatial memory was carried out through the study of novel spatial preference, using the Y-maze behavioral paradigm (40 cm long×9 cm wide×16 cm high) with extra-labyrinthine tracks around of the maze. The test consisted of two trials separated by an interval of 2 hours. In the first training test (acquisition), the mice were placed in the center of the maze and facing the end of one of the arms whose selection was random. After being positioned, they were allowed to explore the maze for 10 minutes with one of the arms closed (novel arm). At the end of this test, the mice were returned to their original cage until the second test (recovery), during which they could freely explore the three arms of the maze for 5 minutes. The total residence time (exploration) in each arm was measured and analyzed from video recordings. The entrance to the arm was defined as the entrance of the four legs of the animal in said arm. The residence time (sec) in each arm during the recovery test of the learned task was used for the statistical analysis. The maze was cleaned with 70% ethanol between runs. All mice were transported to the behavioral testing room in their home cages at least 1 day prior to testing. The experiments were carried out between 8:00 am and 12:30 pm.
All data are expressed as the mean±standard error of the mean (SEM). The Morris water maze data was analyzed in two ways. Escape latencies in the visible platform training phase were analyzed using a two-factor ANOVA (treatment×trial). For the study of long-term memory, the last escape latency value of the training phase with the visible platform (D1 V4) and the first value of the test with the hidden platform performed 24 h later (D2T1) were used. Mice with intact long-term memory capacity should quickly reach the hidden platform in the first test. A scoring system was generated with the difference D2T1−D1 V4 and with the ratio D2T1/D1V4. […]

Test [2] concerns mitochondria isolated from rat liver. The test is described as follows: Mitochondrial swelling induced by Ca2+ and Pi (absorbance 540 nm). The format is biochemical. Conditions: induced by 50 μmol/L Ca2+ and 2 mmol/L Pi; similar concentrations (0.1-100 μmol/L). From the text:
In this case, it was observed that in the control group (in the presence of Ca^2+) the maximum absorbance values are shown, as a measure of maximum swelling. […] These effects correspond to the observed effects on the dissipation of the mitochondria membrane potential.
Isolation of rat mitochondria: Mitochondria were isolated by the classical method of differential centrifugation from the liver of male Wistar rats (Mirandola S R, et al., in J Neurosci Res 2010; 88: 630-39). […]
(§1) Mitochondrial membrane potential and ROS were determined by spectrophotometry, using as fluorescent probes, respectively, safranin (10 μmol/L) (Zanotti A., and Azzone G F in Archives of Biochemistry and Biophysics 1980, 201 (1), 255-265) and Amplex Red (Molecular Probes, OR, Eugene) in the presence of horseradish peroxidase (1 IU/mL) (Votyakova and Reynolds, in J Neurochem. 2001, 79 (2), 266-77). Measurements were made in a Hitachi fluorescence spectrophotometer, model F-4500 (Tokyo, Japan) at λexc 495/λem 586 nm (safranin) and at λexc 563/λem 587 nm (Amplex Red). […]
Data analysis: In all cases, the normal distribution and homogeneity of variances of the data were evaluated using the Kolmogorov Smirnov and Levene tests, respectively. […]

For test [3] the test system is unchanged. Put plainly: Production of H2O2 / reactive oxygen species (Amplex Red) in isolated mitochondria. The format is biochemical. The note with it: dose range tested (0.1-100 μmol/L). On the procedure:
Isolation of rat mitochondria: Mitochondria were isolated by the classical method of differential centrifugation from the liver of male Wistar rats (Mirandola S R, et al., in J Neurosci Res 2010; 88: 630-39).
Incubation procedures: Mitochondria were energized with 5 mmol/L potassium succinate (plus 2.5 μmol/L rotenone) in standard incubation medium containing 125 mmol/L sucrose, 65 mmol/L KCl and 10 mmol/L of HEPES-KOH, pH 7.4, at 30° C.
as §1, with “Red). These experiments were carried out in the presence of 0.1 mmol/L of EGTA and the evaluated compound was N-[4-(1-naphthylamino)-4-oxobutanoyl]-β-alanine (1) in a concentration range of 0.1 to 100 μmol/L. Mitochondrial swelling was estimated spectrophotometrically from the decrease in absorbance at 540 nm, using a Hitachi spectrophotometer, Model U-2910 (Japan).” for “Red).”

With `CN1[C@@H]2C[C@@H](OC(=O)[C@H](CO)c3ccccc3)C[C@H]1[C@@H]1O[C@@H]12` [ESC, Scopolamine hydrobromohydrate, reference compound], the “residence time in the novel arm” value in test [1] (ESC group (control group 133.8±9.3 sec), p<0.001) is 98.8 ± 4.2 s. In the case of `O=C(O)CCNC(=O)CCC(=O)Nc1cccc2ccccc12` [compound 1, N-[4-(1-naphthylamino)-4-oxobutanoyl]-β-alanine], the “mitochondrial swelling (absorbance at 540 nm)” value in test [2] was “reverses the effect of Ca^2+-induced swelling”. Moreover, the “production of hydrogen peroxide (H2O2)” value in test [3] is on record as “protects against H2O2 production”. As to `COc1cc2c(cc1OC)C(=O)C(CC1CCN(Cc3ccccc3)CC1)C2` (centres unmarked) [donepezil, reference compound], the “deficit induced by ESC in Y-maze” value in test [1] (donepezil 1 mg/kg, ip, 30 minutes before the test) is recorded as “also reversed the deficit induced by ESC”. Moreover, in test [1] (donepezil group vs ESC), the “residence time in the novel arm” value is “significantly longer than that of ESC”.
